Series [1] can be described thus: Detection of test substance in rat plasma by LC-MS/MS (Test Example 3). The class given is in vivo. Conditions: 100 nmol/kg i.v.; for Maximum time of detection after administration: rat plasma, LC-MS/MS, time at which the test substance was finally detected. The method, boiled down: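 Reported as final detection time: LC-MS/MS measured test substance in rat plasma collected from the jugular vein at 15, 30, 60, 90, 120, 180 and 240 min post-dose. Sample prep used a labelled hANP internal standard, acidic solvent, and sequential 50K then 3K ultrafiltration, keeping the 3K retentate.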

The target of a further series is T1, human GC-A (Homo sapiens, UniProt P16066).
T1 construct: expressed in transfected cells; host or cells: CHO cells
T1 sequence (P16066 33-1061): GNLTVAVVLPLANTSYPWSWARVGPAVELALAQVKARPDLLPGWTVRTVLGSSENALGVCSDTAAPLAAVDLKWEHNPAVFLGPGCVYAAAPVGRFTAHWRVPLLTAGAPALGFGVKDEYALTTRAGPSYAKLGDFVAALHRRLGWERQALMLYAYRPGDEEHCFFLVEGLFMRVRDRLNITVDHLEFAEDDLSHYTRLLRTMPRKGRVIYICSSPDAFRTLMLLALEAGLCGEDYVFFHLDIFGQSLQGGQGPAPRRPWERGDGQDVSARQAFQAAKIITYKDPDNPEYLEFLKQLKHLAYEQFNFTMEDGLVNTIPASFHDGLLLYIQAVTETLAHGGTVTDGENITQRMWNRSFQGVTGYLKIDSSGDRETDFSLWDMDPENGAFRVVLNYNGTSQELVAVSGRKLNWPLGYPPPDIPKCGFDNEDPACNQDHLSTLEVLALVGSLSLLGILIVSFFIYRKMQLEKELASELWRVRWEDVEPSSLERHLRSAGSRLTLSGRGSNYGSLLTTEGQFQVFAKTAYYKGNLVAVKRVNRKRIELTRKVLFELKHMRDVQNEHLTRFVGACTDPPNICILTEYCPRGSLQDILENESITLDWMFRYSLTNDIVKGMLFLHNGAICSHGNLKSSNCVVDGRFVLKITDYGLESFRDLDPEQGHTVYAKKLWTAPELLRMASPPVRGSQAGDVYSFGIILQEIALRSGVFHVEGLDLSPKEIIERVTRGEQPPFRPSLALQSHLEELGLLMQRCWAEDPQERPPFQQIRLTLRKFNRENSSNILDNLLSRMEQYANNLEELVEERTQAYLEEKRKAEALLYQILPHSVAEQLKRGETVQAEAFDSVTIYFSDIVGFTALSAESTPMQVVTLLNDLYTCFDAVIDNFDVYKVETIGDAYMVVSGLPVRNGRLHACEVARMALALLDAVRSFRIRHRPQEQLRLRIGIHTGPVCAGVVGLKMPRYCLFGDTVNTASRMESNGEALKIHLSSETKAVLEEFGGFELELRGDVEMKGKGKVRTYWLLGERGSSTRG
Briefly: cGMP elevating activity in CHO/human GC-A cells (Test Example 1). The class given is cell-based. The method, boiled down:
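cGMP in lysates was read by HTRF after a 15 min peptide exposure of GC-A-expressing CHO cells in a CO2 incubator, following 10 min room-temperature preincubation with 1.6 mM IBMX in KRB. T/C values were normalised between solvent wells (0) and 1 nM ANP wells (1).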

For series [2], the system named is cGMP concentration in plasma. Briefly: cGMP concentration in plasma of rats after intravenous injection (Test Example 3). The series is classed as in vivo. The following applies: rat, 100 nmol/kg i.v. As to the method: The duration time (the effect of persistently elevating cGMP in blood and the time for which a test substance was detectable in blood) of each modified peptide prepared in Example 2 in the blood of rats was examined by the following method:
Before the administration and 15, 30, 60, 90, 120, 180, and 240 minutes after the administration, blood was sampled (200 μL/sampling) over time from the jugular vein. The blood samples were immediately left on ice.
The collected blood samples were centrifuged at 5000 rpm at 4° C. for 5 minutes by use of a centrifuge (Sigma 4K15, rotor: Nr12130-H). The separated plasma samples were divided into two types (samples for PK measurement and for cGMP measurement) and stored at −80° C. until measurement.
The cGMP concentration in plasma was measured using Amersham cGMP Enzyme Immunoassay Biotrak™ (EIA) System (dual range) according to the protocol attached thereto.

Series [3] can be described thus: Detection in blood after subcutaneous administration to a monkey. The class given is in vivo.
In a further series the test system is cGMP level in blood. Put plainly: cGMP level in blood after subcutaneous administration to a monkey. The series is classed as in vivo.

2 molecules from US10947289B2, “Glyco-modified atrial natriuretic peptide” (priority 2013, dated 2021) can be followed below.

On to `CC[C@H](C)[C@@H]1NC(=O)[C@H](CCCNC(=N)N)NC(=O)[C@H](CC(=O)O)NC(=O)[C@H](CCSC)NC(=O)[C@H](CCCNC(=N)N)NC(=O)CNC(=O)CNC(=O)[C@H](Cc2ccccc2)NC(=O)[C@@H](NC(=O)[C@H](CO)NC(=O)[C@H](CO)NC(=O)[C@H](CCCNC(=N)N)NC(=O)[C@H](CCCNC(=N)N)NC(=O)[C@H](CC(C)C)NC(=O)[C@H](CO)NC(=O)CCOCCOCCOCCOCCOCCOCCOCCOCCOCCOCCOCCOCCNC(=O)[C@H](CC(=O)N[C@@H]2O[C@H](CO)[C@@H](O[C@@H]3O[C@H](CO)[C@@H](O[C@@H]4O[C@H](CO[C@H]5O[C@H](CO)[C@@H](O)[C@H](O)[C@@H]5O[C@@H]5O[C@H](CO)[C@@H](O[C@@H]6O[C@H](CO[C@]7(C(=O)O)C[C@H](O)[C@@H](NC(C)=O)[C@H]([C@H](O)[C@H](O)CO)O7)[C@H](O)[C@H](O)[C@H]6O)[C@H](O)[C@H]5NC(C)=O)[C@@H](O)[C@H](O[C@H]5O[C@H](CO)[C@@H](O)[C@H](O)[C@@H]5O[C@@H]5O[C@H](CO)[C@@H](O[C@@H]6O[C@H](CO[C@]7(C(=O)O)C[C@H](O)[C@@H](NC(C)=O)[C@H]([C@H](O)[C@H](O)CO)O7)[C@H](O)[C@H](O)[C@H]6O)[C@H](O)[C@H]5NC(C)=O)[C@@H]4O)[C@H](O)[C@H]3NC(C)=O)[C@H](O)[C@H]2NC(C)=O)NC(=O)CO[C@@H]2O[C@H](CO)[C@@H](O[C@@H]3O[C@H](CO)[C@@H](O[C@@H]4O[C@H](CO[C@H]5O[C@H](CO)[C@@H](O)[C@H](O)[C@@H]5O[C@@H]5O[C@H](CO)[C@@H](O[C@@H]6O[C@H](CO[C@]7(C(=O)O)C[C@H](O)[C@@H](NC(C)=O)[C@H]([C@H](O)[C@H](O)CO)O7)[C@H](O)[C@H](O)[C@H]6O)[C@H](O)[C@H]5NC(C)=O)[C@@H](O)[C@H](O[C@H]5O[C@H](CO)[C@@H](O)[C@H](O)[C@@H]5O[C@@H]5O[C@H](CO)[C@@H](O[C@@H]6O[C@H](CO[C@]7(C(=O)O)C[C@H](O)[C@@H](NC(C)=O)[C@H]([C@H](O)[C@H](O)CO)O7)[C@H](O)[C@H](O)[C@H]6O)[C@H](O)[C@H]5NC(C)=O)[C@@H]4O)[C@H](O)[C@H]3NC(C)=O)[C@H](O)[C@H]2NC(C)=O)CSSC[C@@H](C(=O)N[C@@H](CC(N)=O)C(=O)N[C@@H](CO)C(=O)N[C@@H](Cc2ccccc2)C(=O)N[C@@H](CCCNC(=N)N)C(=O)N[C@@H](Cc2ccc(O)cc2)C(=O)O)NC(=O)CNC(=O)[C@H](CC(C)C)NC(=O)CNC(=O)[C@H](CO)NC(=O)[C@H](CCC(N)=O)NC(=O)[C@H](C)NC(=O)CNC1=O` [Compound 2-27, SG-(SG-)Asn-PEG(11)-hANP(1-28)], for which, in series [1], the “Maximum time of detection after administration” value was determined as 2 h. For the same molecule, the EC50 (as a rule, the midpoint of the concentration-response curve) at human GC-A was 0.26 nM.
Consider `CC[C@H](C)[C@@H]1NC(=O)[C@H](CCCNC(=N)N)NC(=O)[C@H](CC(=O)O)NC(=O)[C@H](CCSC)NC(=O)[C@H](CCCNC(=N)N)NC(=O)CNC(=O)CNC(=O)[C@H](Cc2ccccc2)NC(=O)[C@@H](NC(=O)[C@H](CO)NC(=O)[C@H](CO)NC(=O)[C@H](CCCNC(=N)N)NC(=O)[C@H](CCCNC(=N)N)NC(=O)[C@H](CC(C)C)NC(=O)[C@@H](N)CO)CSSC[C@@H](C(=O)N[C@@H](CC(N)=O)C(=O)N[C@@H](CO)C(=O)N[C@@H](Cc2ccccc2)C(=O)N[C@@H](CCCNC(=N)N)C(=O)N[C@@H](Cc2ccc(O)cc2)C(=O)O)NC(=O)CNC(=O)[C@H](CC(C)C)NC(=O)CNC(=O)[C@H](CO)NC(=O)[C@H](CCC(N)=O)NC(=O)[C@H](C)NC(=O)CNC1=O` [Native hANP, hANP(1-28)], for which the “Maximum time of detection after administration” value in series [1] worked out at 0 h. Moreover, the “Detection of test substance in plasma sample” value in series [1] (rat, 15 minutes after the administration) is given as “no longer detected”. This molecule also registered an AUC60-240 in series [2] (plasma cGMP) of at most 0 pmol·h/mL. Also, the “All values integrated AUC 0-240” value in series [2] (plasma cGMP, 0 to 240 minutes, Pre-value as baseline, points under baseline negative) is recorded as 13.90 (pmol/ml)*h. In addition, in series [2] (plasma cGMP, 60 to 240 minutes, Pre-value as baseline, points under baseline negative), the “All values integrated AUC 60-240” value was −33.86 (pmol/ml)*h. Besides, the “Pre-value and higher values integrated AUC 60-240” value in series [2] (plasma cGMP, 60 to 240 minutes, only points above baseline) was 0.00 (pmol/ml)*h. In series [2], the “Elevation of cGMP in plasma at 60 minutes or later” value is “disappeared completely” and the “cGMP level 30 minutes after the administration” value is “a level close to that before the start of the administration”. The “Detection in blood after administration” value in series [3] is “no longer detected in blood 30 minutes after the administration”. Further, the “Elevation of the cGMP level in blood after administration” value in the series on cGMP level in blood is reported as “returns, 60 minutes after the administration, to the same level as that before the administration”.
